Assay results from patent US6455528B1, “Piperazine compounds and medicinal use thereof” (Mitsubishi Pharma Corporation, priority 1997, dated 2002).
Counter-ions that a name gives are not always drawn.

Compound	melting point
CC(=O)NCc1ccc(C(C)N2CCN(c3ccccc3)CC2)cc1 (stereo not shown) (as salt: hydrochloride)	233 to 235 °C (dec.)
CC(=O)NCc1ccc(CN2CCN(c3ccc(F)cc3Br)CC2)cc1 (as salt: hydrochloride)	231 to 235 °C
CC(=O)NCc1ccc(CN2CCN(c3ccc(F)cc3C)CC2)cc1 (as salt: hydrochloride)	115 to 117 °C
CC(=O)NCc1ccc(C(C)(C)N2CCN(c3ccc(F)cc3)CC2)cc1 (as salt: hydrochloride) (hydrate or solvate)	179 to 181 °C
CC(=O)NC(C)c1ccc(CN2CCN(c3ccccc3)CC2)cc1 (stereo not shown) (as salt: hydrochloride) (hydrate or solvate) [Example 58, N-(1-(4-((4-Phenylpiperazin-1-yl)methyl)phenyl)ethyl)acetamide Dihydrochloride 1/4 Hydrate]	196 to 200 °C
CC(=O)NCc1ccc(CN2CCN(c3ncccn3)CC2)cc1 (as salt: hydrochloride) (hydrate or solvate) [Example 73, N-(4-((4-(Pyrimidin-2-yl)piperazin-1-yl)methyl)phenylmethyl)acetamide Dihydrochloride Monohydrate]	194 to 195 °C
CC(=O)NCc1ccc(CN2CCN(c3nccs3)CC2)cc1 (as salt: hydrochloride) (hydrate or solvate) [Example 81, N-(4-((4-(Thiazol-2-yl)piperazin-1-yl)methyl)phenylmethyl)acetamide Hydrochloride 1/2 Hydrate]	120 to 121 °C
COc1ccccc1N1CCN(C(C)c2ccc(CNC(C)=O)cc2)CC1 (stereo not shown) (as salt: hydrochloride) [Example 19, N-(4-(1-(4-(2-Methoxyphenyl)piperazin-1-yl)ethyl)phenylmethyl)acetamide Dihydrochloride]	220 to 223 °C (dec.)
CC(=O)NCc1ccc(CN2CCN(c3ccc(O)cc3)CC2)cc1 (as salt: hydrochloride) [Example 36, N-(4-((4-(4-Hydroxyphenyl)piperazin-1-yl)methyl)phenylmethyl)acetamide Dihydrochloride]	218 to 220 °C
NCc1ccc(CN2CCN(c3ccccc3)CC2)cc1 [Example 2, 4-((4-(Aminomethyl)phenyl)methyl)-1-phenylpiperazine]	68 to 70 °C
O=CNCc1ccc(CN2CCN(c3ccccc3)CC2)cc1 [Example 3, N-(4-((4-Phenylpiperazin-1-yl)methyl)phenylmethyl)formamide]	108 to 109 °C
CCC(=O)NCc1ccc(CN2CCN(c3ccccc3)CC2)cc1 [Example 4, N-(4-((4-Phenylpiperazin-1-yl)methyl)phenylmethyl)propionamide]	140 to 141 °C
CC(=O)NCc1ccc(CN2CCN(c3ccc(F)cc3)CC2)cc1 [Example 5, N-(4-((4-(4-fluorophenyl)piperazin-1-yl)methyl)phenylmethyl)acetamide]	164 to 166 °C
CC(=O)NCc1ccc(CN2CCN(c3cccc(C)c3)CC2)cc1 [Example 9, N-(4-((4-(3-Methylphenyl)piperazin-1-yl)methyl)phenylmethyl)acetamide]	80 to 81 °C
CC(=O)NCc1ccc(CN2CCN(c3ccc(Cl)cc3)CC2)cc1 [Example 11, N-(4-((4-(4-Chlorophenyl)piperazin-1-yl)methyl)phenylmethyl)acetamide]	180.5 to 182 °C
COc1ccc(N2CCN(Cc3ccc(CNC(C)=O)cc3)CC2)cc1 [Example 13, N-(4-((4-(4-Methoxyphenyl)piperazin-1-yl)methyl)phenylmethyl)acetamide]	137 to 138 °C
CC(=O)NCCc1ccc(CN2CCN(c3ccccc3)CC2)cc1 [Example 14, N-(2-(4-((4-Phenylpiperazin-1-yl)methyl)phenyl)ethyl)acetamide]	117 to 118 °C
CC(=O)NCc1c(C)cc(CN2CCN(c3ccc(F)cc3)CC2)cc1C [Example 18, N-(4-(4-(4-Fluorophenyl)piperazin-1-ylmethyl)-2,6-dimethylphenylmethyl)acetamide]	163 to 164 °C
CC(=O)NCc1ccc(CN2CCN(c3ccccc3)CC2)cc1[N+](=O)[O-] [Example 21, N-(2-Nitro-4-((4-phenylpiperazin-1-yl)methyl)phenylmethyl)acetamide]	135 to 136 °C
CC(=O)NCc1ccc(CN2CCN(c3ccccc3)CC2)cc1N [Example 22, N-(2-Amino-4-((4-phenylpiperazin-1-yl)methyl)phenylmethyl)acetamide]	148 to 149 °C
CC(=O)NCc1ccc(CN2CCN(c3ccc(F)cc3)CC2)cc1[N+](=O)[O-] [Example 23, N-(4-((4-(4-Fluorophenyl)piperazin-1-yl)methyl)-2-nitrophenylmethyl)acetamide]	112 to 114 °C
CC(=O)NCc1ccc(CN2CCN(c3ccc(F)cc3)CC2)cc1N [Example 24, N-(2-Amino-4-((4-(4-fluorophenyl)piperazin-1-yl)methyl)phenylmethyl)acetamide]	163 to 164 °C

Compound	melting point
CC(=O)NCc1ccc(CN2CCN(c3ccc(F)cc3)CC2)cc1Cl [Example 26, N-(2-Chloro-4-((4-(4-fluorophenyl)-piperazin-1-yl)methyl)phenylmethyl)acetamide]	141 to 142 °C
CC(=O)NCCc1ccc(CN2CCN(c3ccc(F)cc3)CC2)cc1 [Example 27, N-(2-(4-((4-(4-Fluorophenyl)piperazin-1-yl)methyl)phenyl)ethyl)acetamide]	121 to 123 °C
CC(=O)NCc1ccc(CN2CCN(c3ccc([N+](=O)[O-])cc3)CC2)cc1 [Example 33, N-(4-((4-(4-Nitrophenyl)piperazin-1-yl)methyl)phenylmethyl)acetamide]	151.5 to 153.5 °C
CC(=O)NCc1ccc(CN2CCN(c3ccc(NC(C)=O)cc3)CC2)cc1 [Example 35, N-(4-((4-(4-Acetamidophenyl)piperazin-1-yl)methyl)phenylmethyl)acetamide]	225 to 226 °C
CC(=O)NCc1ccc(CN2CCN(c3ccc(F)cc3[N+](=O)[O-])CC2)cc1 [Example 37, N-(4-((4-(4-Fluoro-2-nitrophenyl)-piperazin-1-yl)methyl)phenylmethyl)acetamide]	94.5 to 96 °C
CC(=O)NCc1ccc(CN2CCN(c3ccc(F)cc3N)CC2)cc1 [Example 38, N-(4-((4-(2-Amino-4-fluorophenyl)piperazin-1-yl)methyl)phenylmethyl)acetamide]	139 to 140 °C
CC(=O)NCc1ccc(CN2CCN(c3ccc(F)cc3NC(C)=O)CC2)cc1 [Example 39, N-(4-((4-(2-Acetylamino-4-fluorophenyl)piperazin-1-yl)methyl)phenylmethyl)acetamide]	148 to 149.5 °C
CCOc1cc(F)ccc1N1CCN(Cc2ccc(CNC(C)=O)cc2)CC1 [Example 41, N-(4-((4-(2-Ethoxy-4-fluorophenyl)-piperazin-1-yl)methyl)phenylmethyl)acetamide]	108 to 109 °C
CC(=O)NCc1ccc(CN2CCN(c3ccc(F)cc3Cl)CC2)cc1 [Example 44, N-(4-((4-(2-Chloro-4-fluorophenyl)piperazin-1-yl)methyl)phenylmethyl)acetamide]	255 to 257 °C
CC(=O)NC(C)c1ccc(CN2CCN(c3ccc(F)cc3F)CC2)cc1 (stereo not shown) [Example 49, N-(1-(4-((4-(2,4-Difluorophenyl)piperazin-1-yl)methyl)phenyl)ethyl)acetamide]	109 to 111 °C
CC(=O)NC(C)(C)c1ccc(CN2CCN(c3ccccc3)CC2)cc1 [Example 50, N-(1-Methyl-1-(4-((4-phenylpiperazin-1-yl)methyl)phenyl)ethyl)acetamide]	110 to 111 °C
CCC(NC(C)=O)c1ccc(CN2CCN(c3ccccc3)CC2)cc1 (stereo not shown) [Example 53, N-(1-(4-((4-Phenylpiperazin-1-yl)methyl)phenyl)propyl)acetamide]	109 to 110.5 °C
CCC(NC(C)=O)c1ccc(CN2CCN(c3ccc(F)cc3)CC2)cc1 (stereo not shown) [Example 54, N-(1-(4-((4-(4-Fluorophenyl)piperazin-1-yl)methyl)phenyl)propyl)acetamide]	113 to 114 °C
CCC(NC(C)=O)c1ccc(CN2CCN(c3ccc(F)cc3F)CC2)cc1 (stereo not shown) [Example 55, N-(1-(4-((4-(2,4-Difluorophenyl)piperazin-1-yl)methyl)phenyl)propyl)acetamide]	137 to 138 °C
CCC(CC)(NC(C)=O)c1ccc(CN2CCN(c3ccccc3)CC2)cc1 [Example 56, N-(1-Ethyl-1-(4-((4-phenylpiperazin-1-yl)methyl)phenyl)propyl)acetamide]	139 to 140 °C
CC(=O)NC1(c2ccc(CN3CCN(c4ccccc4)CC3)cc2)CC1 [Example 57, N-(1-(4-((4-Phenylpiperazin-1-yl)methyl)-phenyl)cyclopropyl)acetamide]	129 to 139.5 °C
CC(=O)NCc1ccc(C(C)N2CCN(c3ccc(F)cc3)CC2)cc1 (stereo not shown) [Example 59, N-(4-(1-(4-(4-Fluorophenyl)piperazin-1-yl)ethyl)phenylmethyl)acetamide]	128 to 130 °C
CC(=O)NC(C)(C)c1ccc(C(C)N2CCN(c3ccc(F)cc3)CC2)cc1 (stereo not shown) [Example 60, N-(1-(4-(1-(4-(4-Fluorophenyl)piperazin-1-yl)ethyl)phenyl)-1-methylethyl)acetamide]	156 to 157 °C
CC(=O)NC(C)(C)c1ccc(C(C)N2CCN(c3ccccc3)CC2)cc1 (stereo not shown) [Example 62, N-(1-(4-(1-(4-Phenylpiperazin-1-yl)ethyl)-phenyl)-1-methylethyl)acetamide]	169 to 171 °C
CC(=O)NC1(c2ccc(CN3CCN(c4ccc(F)cc4)CC3)cc2)CC1 [Example 65, N-(1-(4-((4-(4-Fluorophenyl)piperazin-1-yl)methyl)phenyl)cyclopropyl)acetamide]	124 to 126 °C
CC(=O)NC1(c2ccc(CN3CCN(c4ccc(F)cc4F)CC3)cc2)CC1 [Example 66, N-(1-(4-((4-(2,4-Difluorophenyl)-piperazin-1-yl)methyl)phenyl)cyclopropyl)acetamide]	124 to 125 °C
